Legend:
Rad51 = molecular target: T1, Rad51 (Homo sapiens, UniProt Q06609); experiment: DNA invasion by D-loop assay (strand exchange); format: biochemical; settings: 0.5 μM Rad51, 1 μM 100-ssDNA, 37° C.; read-out: IC50 (RAD51 protein inhibition, D-loop formation)
T1 sequence (Q06609 1-339): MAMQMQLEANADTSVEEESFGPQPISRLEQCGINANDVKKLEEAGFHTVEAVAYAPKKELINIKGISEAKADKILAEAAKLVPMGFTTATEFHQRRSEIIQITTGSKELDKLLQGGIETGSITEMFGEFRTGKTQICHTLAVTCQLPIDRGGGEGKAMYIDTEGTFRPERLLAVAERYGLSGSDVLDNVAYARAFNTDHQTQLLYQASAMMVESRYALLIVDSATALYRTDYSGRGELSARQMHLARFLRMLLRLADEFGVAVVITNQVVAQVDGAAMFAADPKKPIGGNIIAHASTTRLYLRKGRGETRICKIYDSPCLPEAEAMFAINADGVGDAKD
Procedure: Labeled 100-ssDNA** (1 μM) was incubated with 0.5 μM Rad51 in presence or absence of the indicated amounts of the corresponding molecule in 10 μL of standard reaction buffer containing 20 mM Tris-HCl (pH 8), 1 mM ATP, 1 mM DTT, 1 mM CaCl2) at 37° C. for 20 min. The reaction was initiated by adding supercoiled pPB4.3 DNA (200 μM in bp). After incubation of 30 min at 37° C., the reactions were stopped and deproteinized by a stop solution (10 mM Tris-HCl pH 8, 10 mM MgCl2, 1% SDS, and 1 mg/mL proteinase K. The reaction mixtures were further incubated for 15 min at 37° C. After adding 5-fold loading dye (0.05% bromophenol blue, 8% glycerol, 1 mM EDTA), the reaction products were separated by electrophoresis on 1% agarose gel. The electrophoresis was carried out in 0.5×TAE buffer (20 mM Tris, 10 mM acetic acid and 1 mM EDTA) at 100 V for 2 h. The labeled products (100-ssDNA** and D-loop) were visualized and quantified by the detection of the IRD-700 dye with the 700 nm infrared fluorescent detection channel of an Odyssey Infrared Imager (LI-COR) (Normand, A. et al., Biochemical Pharmacology, October 2014, Vol. 91, No. 3, pp. 293-300).
The “D-loop” in vitro test allows the quantification of the formation of the strand exchange structure (D-loop) and thus the determination of the inhibitory power of a molecule during the strand exchange step of the recombinase mechanism. IC50 measuring the RAD51 protein inhibition in presence of compounds A-1 to A-5, […] and DIDS are then calculated.

[1] = tested on: RAD51 foci in DU-145 cells; experiment: Rad51 foci quantification by immunofluorescence; format: cell-based; settings: DU-145, B-2 20 μM + cisplatin 30 μM; FIG. 8
Procedure: DU-145 cells were grown on coverslips (Life Technologies) at a density of 5×10^3 cells per well in medium (RPMI) supplemented with 10% fetal bovine serum (Gibco-Invitrogen). Cells were treated with Cisplatin at 30 μM for 1 hour in presence or in absence of RAD51 inhibitor B-2 at 20 μM, and then the medium was replaced with molecule-free medium. After 18 h, cells were washed once in PBS for 5 min and fixed with ethanol absolute for 25 min.
The fixed cells were incubated for 1 h in the PBS buffer containing 1:1000 diluted anti-RAD51 antibody at room temperature. After three 5-min washes in PBS, slides were incubated with PBS solution containing the secondary antibody conjugated with AlexaFluor 555 ([…]) for 45 min in dark room. […] The images were recorded with NIS Element software (Version 3.6, Nikon, Tokyo, Japan). The quantification of RAD51 foci was processed with a program derived from Fiji-ImageJ software (NIH, Bethesda, Maryland, USA). […]
The treatment with Cisplatin alone induces a high level of RAD51 foci, whereas this level is decreased when the treatment is associated with B-2 20 μM. After the quantification of the number of RAD51 foci per cell, the number of cells containing more than 20 RAD51 foci was determined.

IC50 (Rad51): 5 µM
Compound: N#Cc1ccc(/C=C/c2ccc(C#N)cc2S(=O)(=O)[O-])c(S(=O)(=O)[O-])c1.[Na+].[Na+] [B-2, Sodium (E)-6,6′-(ethene-1,2-diyl)bis(3-cyanobenzenesulfonate)]
decrease of level of RAD51 foci mediated by cisplatin (cells containing more than 20 RAD51 foci) [1]: about 20%
